Measured values from PMC12428237, “Study on the Calcium Transport-Promoting Property and Mechanism of the Peptide–Calcium Complex DEEENDQVK–Ca Based on a Caco-2 Monolayer Model” (Foods, 2025).

Assays:
Assay type in all cases: cell-based, human
[1] = tested on: Caco-2 monolayer; experiment: Calcium transport assay in Caco-2 monolayer model; conditions: 120 min
Protocol: Caco-2 cells (passages 15–30) were seeded at 1 × 10^5 cells/mL in Transwell chambers (12 mm, 0.4 μm pores, polycarbonate membrane, 1.12 cm^2 area) to establish a Caco-2 monolayer model. The culture medium (0.5 mL in the apical and 1.5 mL in the basolateral) was refreshed every 48 h (first week), then daily (next two weeks). The integrity of the Caco-2 cell monolayer model was verified by the following multiple indicators: Transepithelial electrical resistance (TEER) was monitored every 48 h using an epithelial voltohmmeter (RE1600, Beijing Jingong Hongtai Technology Co., Ltd., Beijing, China). Alkaline phosphatase (ALP) activity was measured on days 8, 12, 14, 16, and 21 after inoculation utilizing an ALP assay kit, following the manufacturer’s protocol. Transepithelial permeability was evaluated using sodium fluorescein following the method of Qiu et al..
Caco-2 monolayer models with a TEER value exceeding 500 Ω·cm^2 are permitted for calcium transport studies. Following three sequential washes with Hank’s balanced salt solution (HBSS; calcium/magnesium-free, pH 7.4), monolayers were equilibrated at 37 °C for 30 min. Afterward, the Transwell chambers were moved to fresh receiver plates for transport assays.
Concentration-dependent CaCl2 transport assay: 0.5 mL of CaCl2 solution (1.5~10 mM) was added to the apical (AP) side. The basolateral (BL) side contained 1.5 mL prewarmed HBSS. After 120 min incubation at 37 °C and 5% CO2, the BL side solution was collected for calcium transport analysis.
Time-dependent CaCl2 transport assay: The AP side contained 0.5 mL of 7.5 mM CaCl2 solution, and the BL side 1.5 mL prewarmed HBSS. At designated intervals (30~180 min), 1 mL BL side solution was collected and replaced with equal volumes of fresh HBSS buffer to maintain consistency.
Different concentrations of DK solution (0.5~2 mg/mL, 0.5 mL) containing 7.5 mM CaCl2, or 0.5 mL of DK–Ca solution (0.5~2 mg/mL), were added to the AP side. The BL side contained 1.5 mL prewarmed HBSS. The control group contained 7.5 mM CaCl2 alone on the AP side. At designated intervals (30~180 min), 1 mL BL side solution was collected and replaced with equal volumes of fresh HBSS buffer to maintain consistency.
Calcium concentration in the collected sample was measured using a calcium colorimetric assay kit at 575 nm. Transported calcium was calculated as follows:(1) Tn=1.5Cn+1×∑k=1n-1Ck […]

[2] = tested on: Caco-2 monolayer; experiment: Effect of dietary components (vitamin D3, phytic acid) on calcium transport in Caco-2 monolayer; conditions: 120 min, control without dietary component, n = 3
Protocol: Vitamin D3 (0.5 μmol/L, dissolved in 0.1% ethanol) or phytic acid (1.8 mM, with a of phytic acid/calcium molar ratio of 0.24) was added to the AP side to evaluate the effect of dietary components on calcium transport. The group without an added dietary component served as the control group. After 120 min incubation, the BL side solution was collected for calcium transport analysis.

[3] = tested on: occludin; experiment: RT-qPCR, occludin mRNA expression; conditions: Caco-2 monolayer, 24 h, 2 mg/mL DK–Ca or 2 mg/mL DK + 7.5 mM CaCl2; normalized to GAPDH, 2^-ΔΔCt; n = 3
Protocol: The expression levels of genes related to calcium transport channels were determined following the method of Li et al.. After 21 days of establishing the Caco-2 monolayer model, the monolayers were treated for 24 h with a complete medium containing 2 mg/mL DK–Ca or 2 mg/mL DK + 7.5 mM CaCl2. The group without an added sample served as the control group. Subsequently, the monolayers were washed thrice with HBSS buffer before cell lysis using 200 μL RNAiso Plus. Total RNA was extracted, and first-strand cDNA synthesis was subsequently performed with the PrimeScript® RT reagent kit as per the kit manufacturer’s instructions. Using cDNA as a template, RT-qPCR was performed with gene-specific primers targeting TRPV6, calbindin-D9k, PMCA1b, occludin, and claudin-2. The standard procedure for PCR amplification was as follows: 95 °C for 30 s, followed by 40 cycles of 95 °C for 5 s, 60 °C for 30 s, and 72 °C for 1 min. Target gene expression level was normalized to GAPDH and calculated using the 2^^(-ΔΔCt) relative quantification method. In experimental groups, GAPDH served as the internal reference gene for normalization. All primer sequences used in this study are detailed in Table S1.

Substance: DEEENDQVK–Ca [DK–Ca, complex formed by chemically chelating DK with CaCl2]
- transported calcium ([1]; 2 mg/mL DK–Ca (calcium content 300 μg/mL) on AP side, AP to BL, HBSS pH 7.4, 37 °C, calcium colorimetric kit 575 nm, mean ± SD, n = 3): 74.11 ± 1.25 μg/well
- transported calcium, fold higher than that of the CaCl2 control group ([1]; calcium content 300 μg/mL (2 mg/mL peptide sample), AP to BL, 37 °C): 1.83 fold
- calcium transport-promoting capacity relative to DK + CaCl2 ([1]; equivalent calcium dose (7.5 mM)): 1.37 times
- reduction of transported calcium by phytic acid compared to the control group ([2]; phytic acid 1.8 mM (phytic acid/calcium molar ratio 0.24) on AP side): 7.83%
- increase of transported calcium by vitamin D3 compared to the control group ([2]; vitamin D3 0.5 μmol/L on AP side): 11.3%
- occludin mRNA expression compared to the control group [3]: unchanged
